Assay results as given in ChEMBL document CHEMBL2440076, “New triarylpyrazoles as broad-spectrum anticancer agents: design, synthesis, and biological evaluation” (Eur J Med Chem, 2013).

Tests used:
Type in all cases: functional
NCI-H460 [1] = experiment: Growth inhibition of human NCI-H460 cells assessed as cell growth at 5X10'-6 M after 48 hrs by sulforhodamine B assay; conditions: NCI-H460, 48 h, read-out: Activity
OVCAR-5 = experiment: Growth inhibition of human OVCAR5 cells assessed as cell growth at 5X10'-8 M after 48 hrs by sulforhodamine B assay; conditions: OVCAR-5, 48 h, read-out: Activity
T47D = experiment: Growth inhibition of human T47D cells assessed as cell growth at 5X10'-5 M after 48 hrs by sulforhodamine B assay; conditions: read-out: Activity
786-0 = experiment: Growth inhibition of human 786-0 cells assessed as cell growth at 5X10'-9 M after 48 hrs by sulforhodamine B assay; conditions: 786-0, 48 h, read-out: Activity
MDA-MB-231 [2] = experiment: Growth inhibition of human MDA-MB-231 cells assessed as cell growth at 5X10'-6 M after 48 hrs by sulforhodamine B assay; conditions: MDA-MB-231, 48 h, read-out: Activity
MDA-MB-231 [3] = experiment: Growth inhibition of human MDA-MB-231 cells assessed as cell growth at 5X10'-5 M after 48 hrs by sulforhodamine B assay; conditions: MDA-MB-231, 48 h, read-out: Activity
UO-31 = experiment: Growth inhibition of human UO31 cells assessed as cell growth at 5X10'-9 M after 48 hrs by sulforhodamine B assay; conditions: UO-31, 48 h, read-out: Activity
A549 [4] = experiment: Growth inhibition of human A549/ATCC cells assessed as cell growth at 5X10'-7 M after 48 hrs by sulforhodamine B assay; conditions: A549, 48 h, read-out: Activity
A549 [5] = experiment: Growth inhibition of human A549/ATCC cells assessed as cell growth at 5X10'-8 M after 48 hrs by sulforhodamine B assay; conditions: A549, 48 h, read-out: Activity
RXF 393 = experiment: Growth inhibition of human RXF393 cells assessed as cell growth at 5X10'-7 M after 48 hrs by sulforhodamine B assay; conditions: RXF 393, 48 h, read-out: Activity
MDA-MB-435 = experiment: Growth inhibition of human MDA-MB-435 cells assessed as cell growth at 5X10'-8 M after 48 hrs by sulforhodamine B assay; conditions: MDA-MB-435, 48 h, read-out: Activity
SF-295 = experiment: Growth inhibition of human SF295 cells assessed as cell growth at 5X10'-8 M after 48 hrs by sulforhodamine B assay; conditions: SF-295, 48 h, read-out: Activity
MDA-MB-468 [6] = experiment: Growth inhibition of human MDA-MB-468 cells assessed as cell growth at 5X10'-8 M after 48 hrs by sulforhodamine B assay; conditions: MDA-MB-468, 48 h, read-out: Activity
IGROV-1 = experiment: Growth inhibition of human IGROV1 cells assessed as cell growth at 5X10'-8 M after 48 hrs by sulforhodamine B assay; conditions: IGROV-1, 48 h, read-out: Activity
SK-MEL-28 = experiment: Growth inhibition of human SK-MEL-28 cells assessed as cell growth at 5X10'-9 M after 48 hrs by sulforhodamine B assay; conditions: SK-MEL-28, 48 h, read-out: Activity
RPMI-8226 [7] = experiment: Growth inhibition of human RPMI8226 cells assessed as cell growth at 5X10'-5 M after 48 hrs by sulforhodamine B assay; conditions: RPMI-8226, 48 h, read-out: Activity
[8] = Growth inhibition of human NCI-ADR-RES cells assessed as cell growth at 5X10'-8 M after 48 hrs by sulforhodamine B assay; conditions: read-out: Activity
HCT-15 = experiment: Growth inhibition of human HCT15 cells assessed as cell growth at 5X10'-7 M after 48 hrs by sulforhodamine B assay; conditions: HCT-15, 48 h, read-out: Activity
U-251 = experiment: Growth inhibition of human U251 cells assessed as cell growth at 5X10'-7 M after 48 hrs by sulforhodamine B assay; conditions: U-251, 48 h, read-out: Activity
SN12C [9] = experiment: Growth inhibition of human SN12C cells assessed as cell growth at 5X10'-8 M after 48 hrs by sulforhodamine B assay; conditions: read-out: Activity
SW-620 [10] = experiment: Growth inhibition of human SW620 cells assessed as cell growth at 5X10'-7 M after 48 hrs by sulforhodamine B assay; conditions: SW-620, 48 h, read-out: Activity
RPMI-8226 [11] = experiment: Growth inhibition of human RPMI8226 cells assessed as cell growth at 5X10'-7 M after 48 hrs by sulforhodamine B assay; conditions: RPMI-8226, 48 h, read-out: Activity
SW-620 [12] = experiment: Growth inhibition of human SW620 cells assessed as cell growth at 5X10'-8 M after 48 hrs by sulforhodamine B assay; conditions: SW-620, 48 h, read-out: Activity
PC-3 = experiment: Growth inhibition of human PC3 cells assessed as cell growth at 5X10'-6 M after 48 hrs by sulforhodamine B assay; conditions: PC-3, 48 h, read-out: Activity
OVCAR-4 = experiment: Growth inhibition of human OVCAR4 cells assessed as cell growth at 5X10'-9 M after 48 hrs by sulforhodamine B assay; conditions: OVCAR-4, 48 h, read-out: Activity
SK-OV-3 = experiment: Growth inhibition of human SKOV3 cells assessed as cell growth at 5X10'-6 M after 48 hrs by sulforhodamine B assay; conditions: SK-OV-3, 48 h, read-out: Activity
CCRF-CEM = experiment: Growth inhibition of human CCRF-CEM cells assessed as cell growth at 5X10'-6 M after 48 hrs by sulforhodamine B assay; conditions: read-out: Activity
MDA-MB-468 [13] = experiment: Growth inhibition of human MDA-MB-468 cells assessed as cell growth at 5X10'-9 M after 48 hrs by sulforhodamine B assay; conditions: MDA-MB-468, 48 h, read-out: Activity
Malme-3M = experiment: Growth inhibition of human MALME-3M cells assessed as cell growth at 5X10'-5 M after 48 hrs by sulforhodamine B assay; conditions: read-out: Activity
NCI-H460 [14] = experiment: Growth inhibition of human NCI-H460 cells assessed as cell growth at 5X10'-9 M after 48 hrs by sulforhodamine B assay; conditions: NCI-H460, 48 h, read-out: Activity
NCI-H522 = experiment: Growth inhibition of human NCI-H522 cells assessed as cell growth at 5X10'-5 M after 48 hrs by sulforhodamine B assay; conditions: NCI-H522, 48 h, read-out: Activity
HOP-92 [15] = experiment: Growth inhibition of human HOP92 cells assessed as cell growth at 5X10'-8 M after 48 hrs by sulforhodamine B assay; conditions: HOP-92, 48 h, read-out: Activity
OVCAR-8 = experiment: Growth inhibition of human OVCAR8 cells assessed as cell growth at 5X10'-5 M after 48 hrs by sulforhodamine B assay; conditions: OVCAR-8, 48 h, read-out: Activity
A498 = experiment: Growth inhibition of human A498 cells assessed as cell growth at 5X10'-6 M after 48 hrs by sulforhodamine B assay; conditions: A498, 48 h, read-out: Activity
[16] = Growth inhibition of human NCI-ADR-RES cells assessed as cell growth at 5X10'-7 M after 48 hrs by sulforhodamine B assay; conditions: read-out: Activity
SN12C [17] = experiment: Growth inhibition of human SN12C cells assessed as cell growth at 5X10'-9 M after 48 hrs by sulforhodamine B assay; conditions: read-out: Activity
HOP-92 [18] = experiment: Growth inhibition of human HOP92 cells assessed as cell growth at 5X10'-7 M after 48 hrs by sulforhodamine B assay; conditions: HOP-92, 48 h, read-out: Activity

SMILES | growth at 5 µM (NCI-H460 [1]) | growth at 0.05 µM (OVCAR-5) | growth at 50 µM (T47D) | growth at 0.005 µM (786-0) | growth at 5 µM (MDA-MB-231 [2]) | growth at 50 µM (MDA-MB-231 [3]) | growth at 0.005 µM (UO-31) | growth at 0.5 µM (A549 [4]) | growth at 0.05 µM (A549 [5]) | growth at 0.5 µM (RXF 393) | growth at 0.05 µM (MDA-MB-435) | growth at 0.05 µM (SF-295) | growth at 0.05 µM (MDA-MB-468 [6]) | growth at 0.05 µM (IGROV-1) | growth at 0.005 µM (SK-MEL-28) | growth at 50 µM (RPMI-8226 [7]) | growth at 0.05 µM [8] | growth at 0.5 µM (HCT-15) | growth at 0.5 µM (U-251) | growth at 0.05 µM (SN12C [9]) | also measured
COc1cc(-c2nn(-c3cccc(NC(=O)Nc4ccc(Cl)c(Cl)c4)c3)cc2-c2ccncc2)ccc1Cl | 4% | 90% | 9% | 100% | -47% | -54% | 88% | 60% | 92% | 76% | 97% | 88% | 84% | 103% | 106% | -11% | 106% | 76% | 72% | 94% | growth at 0.5 µM (SW-620 [10]): 89%; growth at 0.5 µM (RPMI-8226 [11]): 45%; growth at 0.05 µM (SW-620 [12]): 102%; growth at 5 µM (PC-3): -17%; growth at 0.005 µM (OVCAR-4): 96%; growth at 5 µM (SK-OV-3): 12%; growth at 5 µM (CCRF-CEM): -2%; growth at 0.005 µM (MDA-MB-468 [13]): 94%; growth at 50 µM (Malme-3M): -43%; growth at 0.005 µM (NCI-H460 [14]): 102%; growth at 50 µM (NCI-H522): -26%; growth at 0.05 µM (HOP-92 [15]): 64%; growth at 50 µM (OVCAR-8): -16%; growth at 5 µM (A498): -3%; growth at 0.5 µM [16]: 72%; growth at 0.005 µM (SN12C [17]): 94%; growth at 0.5 µM (HOP-92 [18]): 35%
COc1cc(-c2nn(-c3cccc(NC(=O)c4cccc(C(F)(F)F)c4)c3)cc2-c2ccncc2)ccc1Cl | 4% | 90% | 21% | 95% | 9% | -21% | 82% | 91% | 98% | 68% | 100% | 95% | 90% | 95% | 103% | -4% | 96% | 84% | 88% | 99% | growth at 0.5 µM (SW-620 [10]): 89%; growth at 0.5 µM (RPMI-8226 [11]): 88%; growth at 0.05 µM (SW-620 [12]): 98%; growth at 5 µM (PC-3): 17%; growth at 0.005 µM (OVCAR-4): 94%; growth at 5 µM (SK-OV-3): 24%; growth at 5 µM (CCRF-CEM): 6%; growth at 0.005 µM (MDA-MB-468 [13]): 94%; growth at 50 µM (Malme-3M): 29%; growth at 0.005 µM (NCI-H460 [14]): 100%; growth at 50 µM (NCI-H522): -24%; growth at 0.05 µM (HOP-92 [15]): 81%; growth at 50 µM (OVCAR-8): 10%; growth at 5 µM (A498): -21%; growth at 0.5 µM [16]: 86%; growth at 0.005 µM (SN12C [17]): 97%; growth at 0.5 µM (HOP-92 [18]): 53%
